Reference: ChEMBL document CHEMBL4043250 (Bioorg Med Chem Lett, 2017)

Tests used:
AGS [1] = assay: Growth inhibition of human AGS cells at 100 uM after 48 hrs by MTT assay relative to control; type: functional; conditions: read-out: GI
[2] = Selectivity index, ratio of IC50 for human L02 cells to IC50 for human AGS cells; type: functional
AGS [3] = assay: Anti-proliferative activity against human AGS cells after 48 hrs by MTT assay; type: functional, cell-based
L02 = assay: (§1) Anti-proliferative activity against human L02 cells after 48 hrs by MTT assay; type: ADME, cell-based; design: inhibition at 48 h: concentration or dose not given beside the values; conditions: Homo sapiens, L02, 48 h
[4] = as §1; type: ADME, cell-based; design: inhibition at 48 h: concentration or dose not given beside the values; conditions: human, L02 cells
AGS [5] = assay: Induction of apoptosis in human AGS cells assessed as necrotic cells at 10 uM after 48 hrs by Annexin-V-FITC/propidium iodide staining based flow cytometry (reference value: 2%); type: functional
AGS [6] = assay: Cell cycle arrest in human AGS cells assessed as accumulation at G1 phase at 10 uM after 48 hrs by propidium iodide staining based flow cytometry (reference value: 77.02%); type: functional
AGS [7] = assay: Cell cycle arrest in human AGS cells assessed as accumulation at G2 phase at 10 uM after 48 hrs by propidium iodide staining based flow cytometry (reference value: 16.41%); type: functional
AGS [8] = assay: Induction of apoptosis in human AGS cells assessed as early apoptotic cells at 0.1 uM after 48 hrs by Annexin-V-FITC/propidium iodide staining based flow cytometry (reference value: 0.2%); type: functional
AGS [9] = assay: Induction of apoptosis in human AGS cells assessed as late apoptotic cells at 0.1 uM after 48 hrs by Annexin-V-FITC/propidium iodide staining based flow cytometry (reference value: 0.3%); type: functional
AGS [10] = assay: Induction of apoptosis in human AGS cells assessed as early apoptotic cells at 10 uM after 48 hrs by Annexin-V-FITC/propidium iodide staining based flow cytometry (reference value: 0.2%); type: functional
AGS [11] = assay: Cell cycle arrest in human AGS cells assessed as accumulation at G1 phase at 0.1 uM after 48 hrs by propidium iodide staining based flow cytometry (reference value: 77.02%); type: functional
AGS [12] = assay: Cell cycle arrest in human AGS cells assessed as accumulation at S phase at 0.1 uM after 48 hrs by propidium iodide staining based flow cytometry (reference value: 6.57%); type: functional
AGS [13] = assay: Cell cycle arrest in human AGS cells assessed as accumulation at G2 phase at 0.1 uM after 48 hrs by propidium iodide staining based flow cytometry (reference value: 16.41%); type: functional
AGS [14] = assay: Induction of apoptosis in human AGS cells assessed as viable cells at 10 uM after 48 hrs by Annexin-V-FITC/propidium iodide staining based flow cytometry (reference value: 97.5%); type: functional; conditions: read-out: Activity
AGS [15] = assay: Induction of apoptosis in human AGS cells assessed as necrotic cells at 0.1 uM after 48 hrs by Annexin-V-FITC/propidium iodide staining based flow cytometry (reference value: 2%); type: functional
AGS [16] = assay: Induction of apoptosis in human AGS cells assessed as late apoptotic cells at 10 uM after 48 hrs by Annexin-V-FITC/propidium iodide staining based flow cytometry (reference value: 0.3%); type: functional
AGS [17] = assay: Induction of apoptosis in human AGS cells assessed as viable cells at 0.1 uM after 48 hrs by Annexin-V-FITC/propidium iodide staining based flow cytometry (reference value: 97.5%); type: functional; conditions: read-out: Activity
AGS [18] = assay: Cell cycle arrest in human AGS cells assessed as accumulation at S phase at 10 uM after 48 hrs by propidium iodide staining based flow cytometry (reference value: 6.57%); type: functional

With `Cc1ccc(-n2cnnc2COc2c3occc3cc3ccc(=O)oc23)cc1` the inhibition of growth at 100 µM (AGS [1]) was 39.4%.
For `O=c1ccc2cc3ccoc3c(OCc3nncn3-c3ccc(F)cc3)c2o1`, the “Ratio IC50” value [2] was 7.2, the inhibition of growth at 100 µM (AGS [1]) was 72.3% and the IC50 (AGS [3]) was 13.1 µM. It also gave an IC50 (L02) of 94.2 µM and an inhibition at 48 h [4] of 53.1%.
`O=c1ccc2cc3ccoc3c(OCc3cn(-c4ccccc4)nn3)c2o1` gave an inhibition of growth at 100 µM (AGS [1]) of 46.4%.
In the case of `COc1ccc(-n2cnnc2COc2c3occc3cc3ccc(=O)oc23)cc1`, the inhibition of growth at 100 µM (AGS [1]) is reported as 34.4%.
In the case of `O=c1ccc2cc3ccoc3c(OCc3cn(Cc4ccc(Cl)cc4)nn3)c2o1`, the “Ratio IC50” value [2] is reported as greater than 1.1, the inhibition of growth at 100 µM (AGS [1]) is reported as 53.2% and the IC50 (AGS [3]) is reported as 93.2 µM. It also gave an IC50 (L02) greater than 100 µM.
In the case of `Cc1nncn1-c1ccc(F)cc1`, the inhibition of growth at 100 µM (AGS [1]) is reported as 13.9%, the IC50 (AGS [3]) is reported as greater than 100 µM and the IC50 (L02) is reported as greater than 100 µM. The inhibition at 48 h [4] was 16.9%.
For `O=c1[nH]cc(F)c(=O)[nH]1` [FLUOROURACIL], the inhibition of growth at 100 µM (AGS [1]) was 74.9% and the IC50 (AGS [3]) was 29.6 µM.
Work on `O=c1ccc2cc3ccoc3c(OCc3cn(-c4ccccc4F)nn3)c2o1` yielded an inhibition of growth at 100 µM (AGS [1]) of 39.6%.
For `COc1c2occc2cc2ccc(=O)oc12` [METHOXSALEN], the inhibition of growth at 100 µM (AGS [1]) was 35.3%, the IC50 (AGS [3]) was greater than 100 µM and the IC50 (L02) was greater than 100 µM. For the same molecule, the inhibition at 48 h [4] was 3.3%.
For `O=c1ccc2cc3ccoc3c(OCc3cn(Cc4ccc(F)cc4)nn3)c2o1`, the inhibition of growth at 100 µM (AGS [1]) was 43.1%.
With `O=c1ccc2cc3ccoc3c(OCc3nncn3-c3ccccc3Cl)c2o1` the inhibition of growth at 100 µM (AGS [1]) was 45.2%.
Work on `O=c1ccc2cc3ccoc3c(OCc3cn(Cc4cccc(Cl)c4)nn3)c2o1` yielded an inhibition of growth at 100 µM (AGS [1]) of 49.5%.
In the case of `O=c1ccc2cc3ccoc3c(OCc3nncn3-c3ccc(C(F)(F)F)cc3)c2o1`, the “Ratio IC50” value [2] is reported as greater than 2.4, the inhibition of growth at 100 µM (AGS [1]) is reported as 52.9% and the IC50 (AGS [3]) is reported as 41 µM. It also gave an IC50 (L02) greater than 100 µM.
For `O=c1ccc2cc3ccoc3c(OCc3cn(Cc4cccc(C(F)(F)F)c4)nn3)c2o1`, the inhibition of growth at 100 µM (AGS [1]) was 51.7%, the IC50 (AGS [3]) was greater than 100 µM and the IC50 (L02) was greater than 100 µM.
Molecule `O=c1ccc2cc3ccoc3c(OCc3cn(Cc4cccc(F)c4)nn3)c2o1` has an inhibition of growth at 100 µM (AGS [1]) of 30.1%.
In the case of `O=c1ccc2cc3ccoc3c(OCc3cn(Cc4ccc(Cl)cc4Cl)nn3)c2o1`, the “Ratio IC50” value [2] is reported as 3.4, the inhibition of growth at 100 µM (AGS [1]) is reported as 67.7% and the IC50 (AGS [3]) is reported as 26.5 µM. It also gave an IC50 (L02) of 90.2 µM.
With `O=c1ccc2cc3ccoc3c(OCc3cn(-c4ccc(F)cc4)nn3)c2o1` the “Ratio IC50” value [2] was greater than 9.3, the inhibition of growth at 100 µM (AGS [1]) was 70.4% and the IC50 (AGS [3]) was 10.7 µM. It also gave an IC50 (L02) greater than 100 µM.
With `Cc1ccc(Cn2cc(COc3c4occc4cc4ccc(=O)oc34)nn2)cc1` the inhibition of growth at 100 µM (AGS [1]) was 47%.
In the case of `Cc1cn(-c2ccc(C(F)(F)F)cc2)nn1`, the inhibition of growth at 100 µM (AGS [1]) is reported as 44.5%, the IC50 (AGS [3]) is reported as greater than 100 µM and the IC50 (L02) is reported as greater than 100 µM. It also gave an inhibition at 48 h [4] of 9.4%.
Work on `O=c1ccc2cc3ccoc3c(OCc3nncn3-c3ccccc3)c2o1` yielded an inhibition of growth at 100 µM (AGS [1]) of 40.1%.
`O=c1ccc2cc3ccoc3c(OCc3cn(Cc4ccccc4F)nn3)c2o1` showed an inhibition of growth at 100 µM (AGS [1]) of 25.5%.
`O=c1ccc2cc3ccoc3c(OCc3cn(Cc4ccccc4Cl)nn3)c2o1` gave an inhibition of growth at 100 µM (AGS [1]) of 33.2%.
With `O=c1ccc2cc3ccoc3c(OCc3cn(-c4ccc(Cl)cc4)nn3)c2o1` the “Ratio IC50” value [2] was greater than 12.2, the inhibition of growth at 100 µM (AGS [1]) was 89.6% and the IC50 (AGS [3]) was 8.2 µM. The IC50 (L02) was greater than 100 µM.
In the case of `O=c1ccc2cc3ccoc3c(OCc3cn(Cc4ccccc4)nn3)c2o1`, the inhibition of growth at 100 µM (AGS [1]) is reported as 24.4%.
With `O=c1ccc2cc3ccoc3c(OCc3cn(-c4ccc(C(F)(F)F)cc4)nn3)c2o1` the Activity (AGS [5]) was 1.7%, the “Ratio IC50” value [2] was greater than 13.3 and the Activity (AGS [6]) was 49.76%. It also gave an Activity (AGS [7]) of 38.17%, an inhibition of growth at 100 µM (AGS [1]) of 92.4% and an Activity (AGS [8]) of 0.3%. It also gave an Activity (AGS [9]) of 0.8%, an Activity (AGS [10]) of 0.9% and an Activity (AGS [11]) of 61.1%. For the same molecule, the IC50 (AGS [3]) was 7.5 µM, the Activity (AGS [12]) was 7.17% and the Activity (AGS [13]) was 31.73%. The viability at 10 µM (AGS [14]) was 96.4%, the Activity (AGS [15]) was 1.8% and the Activity (AGS [16]) was 1%. The viability at 0.1 µM (AGS [17]) was 96.2%, the IC50 (L02) was greater than 100 µM and the inhibition at 48 h [4] was 33.9%. The Activity (AGS [18]) was 12.08%.
For `COc1ccc(-n2cc(COc3c4occc4cc4ccc(=O)oc34)nn2)cc1`, the “Ratio IC50” value [2] was greater than 1.1, the inhibition of growth at 100 µM (AGS [1]) was 53.2% and the IC50 (AGS [3]) was 94.6 µM. For the same molecule, the IC50 (L02) was greater than 100 µM.
Work on `O=c1ccc2cc3ccoc3c(OCc3nncn3-c3ccc(Cl)cc3)c2o1` yielded an inhibition of growth at 100 µM (AGS [1]) of 40.3%.
With `Cc1ccc(-n2cc(COc3c4occc4cc4ccc(=O)oc34)nn2)cc1` the “Ratio IC50” value [2] was greater than 3, the inhibition of growth at 100 µM (AGS [1]) was 65.6% and the IC50 (AGS [3]) was 33.2 µM. The IC50 (L02) was greater than 100 µM.
`O=c1ccc2cc3ccoc3c(OCc3cn(Cc4c(Cl)cccc4Cl)nn3)c2o1` gave an inhibition of growth at 100 µM (AGS [1]) of 32.5%.
